Legend:
[1] = biological target: T1, Polyunsaturated fatty acid 5-lipoxygenase (Rattus norvegicus, UniProt P12527)
T1 sequence (P12527 whole entry): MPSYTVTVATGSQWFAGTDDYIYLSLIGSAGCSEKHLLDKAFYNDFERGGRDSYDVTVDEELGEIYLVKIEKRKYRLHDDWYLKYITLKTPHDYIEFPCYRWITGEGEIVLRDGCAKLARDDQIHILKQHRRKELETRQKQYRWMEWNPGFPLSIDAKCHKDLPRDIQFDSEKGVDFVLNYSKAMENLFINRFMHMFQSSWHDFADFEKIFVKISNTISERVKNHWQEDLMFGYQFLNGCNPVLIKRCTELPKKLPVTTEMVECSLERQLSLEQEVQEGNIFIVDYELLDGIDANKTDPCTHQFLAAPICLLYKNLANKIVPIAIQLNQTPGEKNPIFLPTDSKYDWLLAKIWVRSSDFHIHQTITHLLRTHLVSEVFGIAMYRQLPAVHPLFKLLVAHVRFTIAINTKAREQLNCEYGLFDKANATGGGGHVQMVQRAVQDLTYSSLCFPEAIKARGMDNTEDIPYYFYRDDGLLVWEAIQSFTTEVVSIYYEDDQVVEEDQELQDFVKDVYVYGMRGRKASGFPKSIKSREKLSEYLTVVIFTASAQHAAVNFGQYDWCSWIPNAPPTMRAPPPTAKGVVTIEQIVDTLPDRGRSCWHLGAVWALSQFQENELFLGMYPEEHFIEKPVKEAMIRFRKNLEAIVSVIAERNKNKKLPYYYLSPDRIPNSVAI
Description: Inhibition of 5-lipoxygenase measured by the reduction of leukotriene B4 (LTB4) in intact basophilic rat leukemia cells

Cyclooxygenase = biological target: T2, Cyclooxygenase (Rattus norvegicus, UniProt P35355+Q63921)
T2 sequence (P35355 whole entry): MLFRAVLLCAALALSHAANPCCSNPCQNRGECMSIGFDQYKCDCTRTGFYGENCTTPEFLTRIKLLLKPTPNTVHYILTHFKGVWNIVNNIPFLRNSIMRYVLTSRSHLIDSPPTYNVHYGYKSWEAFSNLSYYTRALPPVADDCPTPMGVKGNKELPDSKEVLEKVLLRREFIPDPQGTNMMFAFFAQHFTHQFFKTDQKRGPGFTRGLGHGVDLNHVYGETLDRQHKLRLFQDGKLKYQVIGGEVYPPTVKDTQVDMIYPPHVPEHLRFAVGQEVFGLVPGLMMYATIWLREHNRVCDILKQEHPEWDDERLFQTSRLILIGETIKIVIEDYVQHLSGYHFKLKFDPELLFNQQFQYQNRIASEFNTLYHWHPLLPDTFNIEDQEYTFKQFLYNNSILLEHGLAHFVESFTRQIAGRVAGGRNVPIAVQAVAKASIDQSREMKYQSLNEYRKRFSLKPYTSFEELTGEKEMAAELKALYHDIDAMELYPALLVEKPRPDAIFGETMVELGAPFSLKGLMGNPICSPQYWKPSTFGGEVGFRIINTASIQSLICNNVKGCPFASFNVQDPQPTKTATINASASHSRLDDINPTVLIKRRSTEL
T2 sequence (Q63921 whole entry): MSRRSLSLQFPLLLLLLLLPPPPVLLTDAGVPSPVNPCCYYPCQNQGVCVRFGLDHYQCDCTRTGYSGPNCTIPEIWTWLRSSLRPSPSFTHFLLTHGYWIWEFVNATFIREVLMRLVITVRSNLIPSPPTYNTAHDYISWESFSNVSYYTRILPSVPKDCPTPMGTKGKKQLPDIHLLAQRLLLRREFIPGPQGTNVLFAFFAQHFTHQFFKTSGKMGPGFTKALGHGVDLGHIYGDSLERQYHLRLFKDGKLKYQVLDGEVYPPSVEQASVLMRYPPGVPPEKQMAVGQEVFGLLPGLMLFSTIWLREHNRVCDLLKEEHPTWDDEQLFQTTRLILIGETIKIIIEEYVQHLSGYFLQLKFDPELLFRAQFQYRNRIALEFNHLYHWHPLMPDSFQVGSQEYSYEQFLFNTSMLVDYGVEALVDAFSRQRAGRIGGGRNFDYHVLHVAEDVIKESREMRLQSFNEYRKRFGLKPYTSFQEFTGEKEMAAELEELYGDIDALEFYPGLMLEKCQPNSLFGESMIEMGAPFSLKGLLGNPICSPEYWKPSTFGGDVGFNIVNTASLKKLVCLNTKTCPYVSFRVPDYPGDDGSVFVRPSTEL
Description: Inhibition of prostaglandin G/H synthase by measuring the reduction of prostaglandin F2-alpha in intact basophilic rat leukemia cells

[2] = Partition coefficient (logP); type: physicochemical; conditions: octanol/water
Rattus norvegicus [3] = assay: In vivo inflammatory activity measured on Carrageenan foot-pad edema (CFE) in rats, peroral administration; type: functional
Rattus norvegicus [4] = assay: In vivo inflammatory activity measured on Gastric ulcerogenicity, expressed as percent rats with ulcers at 200 mg/kg, po (n= 10 rats per experimental group); type: functional, Stomach
Rattus norvegicus [5] = assay: In vivo inflammatory activity measured on Mycobacterium foot-pad edema (MFE) model, peroral administration; type: functional
[6] = biological target: T1, Polyunsaturated fatty acid 5-lipoxygenase; remark: listed apart in the source
Description: Tested for inhibition of 5-LO by measuring the reduction of leukotriene B4 (LTB4) in intact basophilic rat leukemia cells

Rattus norvegicus [7] = assay: In vivo inflammatory activity measured on Gastric ulcerogenicity (n= 10 rats per experimental group); type: functional, Stomach
Rattus norvegicus [8] = assay: In vivo inflammatory activity measured on Mycobacterium foot-pad edema (MFE) model; type: functional
Rattus norvegicus [9] = assay: In vivo inflammatory activity measured on Gastric ulcerogenicity, expressed as percent rats with ulcers at 10 mg/kg, po (n= 10 rats per experimental group); type: functional, Stomach
Rattus norvegicus [10] = assay: In vivo inflammatory activity measured on Gastric ulcerogenicity, (n= 10 rats per experimental group); type: functional, Stomach

IC50 [1]	IC50 (Cyclooxygenase)	logP [2]	SMILES	further results
5.1 µM	> 30 µM	3.1	CC(C)(C)c1cc(-c2n[nH]c(N)n2)cc(C(C)(C)C)c1O	
0.7 µM	2.4 µM	3.7	CC(C)(C)c1cc(-c2nnc(N)o2)cc(C(C)(C)C)c1O	ID40 (Rattus norvegicus [3]): 8.2 mg/kg
		2.7	CC(C)(C)c1cc(-c2n[nH]c(=S)s2)cc(C(C)(C)C)c1O.C[N+](C)(C)CCO	Activity (Rattus norvegicus [4]): 0%; ID40 (Rattus norvegicus [3]): 1.1 mg/kg; ID40 (Rattus norvegicus [5]): 7.8 mg/kg
	5.5 µM	3.1	CC(C)(C)c1cc(-c2n[nH]c(O)n2)cc(C(C)(C)C)c1O	
		> 4	Cc1cc(/C=C/c2cc(C(C)(C)C)c(O)c(C(C)(C)C)c2)on1	ID40 (Rattus norvegicus [5]): 33 mg/kg
> 32 µM	> 32 µM	3.7	Cn1c(S)nnc1-c1cc(C(C)(C)C)c(O)c(C(C)(C)C)c1	
0.21 µM	> 32 µM	3.4	CC(C)(C)c1cc(/C=C/c2nnc(O)o2)cc(C(C)(C)C)c1O	
		3.2	Cn1c(O)nnc1-c1cc(C(C)(C)C)c(O)c(C(C)(C)C)c1	
1.6 µM	> 32 µM	3.8	CC(C)(C)c1cc(/C=C/c2n[nH]c(O)n2)cc(C(C)(C)C)c1O	
1.1 µM	8 µM		CC(C)(C)c1cc(/C=C/c2nnc(N)o2)cc(C(C)(C)C)c1O	
5.9 µM	> 16 µM	4	CC(C)(C)c1cc(-c2nnc(O)s2)cc(C(C)(C)C)c1O	
	0.35 µM		COc1c(C(C)(C)C)cc(-c2nnc(S)s2)cc1C(C)(C)C	IC50 [6]: 0.92 µM
	2.5 µM	3.4	CC(C)(C)c1cc(-c2nnc(O)o2)cc(C(C)(C)C)c1O	
	0.65 µM		Cn1nc(-c2cc(C(C)(C)C)c(O)c(C(C)(C)C)c2)sc1=S	IC50 [6]: 5 µM
0.58 µM	9.4 µM	3	CC(C)(C)c1cc(/C=C/c2nnc(S)o2)cc(C(C)(C)C)c1O	
> 32 µM	> 32 µM	3.3	CC(C)(C)c1cc(-c2nnc(S)n2N)cc(C(C)(C)C)c1O	
> 10 µM	> 10 µM		CSc1nnc(/C=C/c2cc(C(C)(C)C)c(O)c(C(C)(C)C)c2)s1	
2.4 µM	6.7 µM	3.1	CC(C)(C)c1cc(/C=C/c2n[nH]c(S)n2)cc(C(C)(C)C)c1O	
4.8 µM	3.7 µM	2.3	CC(C)(C)c1cc(-c2nnc(S)o2)cc(C(C)(C)C)c1O	ID40 (Rattus norvegicus [3]): 3.9 mg/kg; ID40 (Rattus norvegicus [5]): 59.9 mg/kg
	0.13 µM	3.7	CC(C)(C)c1cc(-c2nnc(N)s2)cc(C(C)(C)C)c1O	Activity (Rattus norvegicus [4]): 10%; ID40 (Rattus norvegicus [3]): 1.9 mg/kg; ID40 (Rattus norvegicus [5]): 2.3 mg/kg
		> 4	CC(C)(C)c1cc(/C=C2\CCOC2=O)cc(C(C)(C)C)c1O	UD50 (Rattus norvegicus [7]): 93.1 mg/kg; ID40 (Rattus norvegicus [3]): >10 mg/kg; ID40 (Rattus norvegicus [5]): 3.7 mg/kg
1.8 µM	5.2 µM	> 4	CC(C)(C)c1cc(/C=C/c2nnc(S)s2)cc(C(C)(C)C)c1O	
		> 4	CON1CC/C(=C\c2cc(C(C)(C)C)c(O)c(C(C)(C)C)c2)C1=O [E-5110]	ID40 (Rattus norvegicus [8]): 1.9 mg/kg; ID40 (Rattus norvegicus [3]): 24.1 mg/kg; Activity (Rattus norvegicus [9]): 10%
			Cc1ccc(Cl)c(Nc2ccccc2C(=O)O)c1Cl [MECLOFENAMIC ACID]	ID40 (Rattus norvegicus [3]): 5.6 mg/kg; UD50 (Rattus norvegicus [10]): 36.2 mg/kg; ID40 (Rattus norvegicus [5]): 0.35 mg/kg

SMILES	IC50 [1]	IC50 (Cyclooxygenase)	logP [2]	further results
CC(C)(C)c1cc(-c2n[nH]c(S)n2)cc(C(C)(C)C)c1O	11 µM	0.78 µM	2.4	
CSc1nnc(-c2cc(C(C)(C)C)c(O)c(C(C)(C)C)c2)s1	1.2 µM	0.41 µM	> 4	

Reference: ChEMBL document CHEMBL1127091, “Design of 5-(3,5-di-tert-butyl-4-hydroxyphenyl)-1,3,4-thiadiazoles, -1,3,4-oxadiazoles, and -1,2,4-triazoles as orally-active, nonulcerogenic antiinflammatory agents” (J Med Chem, 1993)
